A value given as a limit tells only on which side of the number the result lay.

By IC50 is commonly meant the concentration that gives 50% inhibition. Low readings indicate higher potency, high ones lower potency.

The assay deals with T1, BRD4 BD1 (Homo sapiens, UniProt O60885).
T1 construct: Protein BRD4 BD1 used in the assay was purchased from Active Motif (cat. 31380); purchased Active Motif 31380
In words: HTRF in vitro enzyme activity assay, inhibition of BRD4 BD1 binding to acetylated H4 peptide. As to conditions: IC50 values of the compounds against BRD4 BD1 binding; class symbols A/B/C. Put shortly: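 Recombinant human BRD4 BD1 (30 nM final) incubated with compound and biotinylated tetra-acetylated H4(1-21) peptide, 30 min at 37 °C; 5-point 1:5 dilution series, 0.1% DMSO final. HTRF read after 3 h at RT with SA-XL665 and Eu(K)-labelled antibody; IC50 derived.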
On the technique in general: Time-resolved FRET reads energy transfer from a long-lived donor to a nearby acceptor.
`CC1C(=O)N(C)c2ccc(N3C(=O)c4ccccc4C3c3ccc(Cl)cc3)nc2N1Cc1ccccc1` (racemic) [Example A35, 4-benzyl-6-(1-(4-chlorophenyl)-3-oxoisoindolin-2-yl)-1,3-dimethyl-3,4-dihydropyrido [2,3-b]pyrazin-2(1H)-one]: the IC50 was in the range of 10 to 100 nM. The result for `CC1C(=O)N(C)c2ccc(N3C(=O)c4ccccc4C3c3cccnc3)nc2N1C1(C)CC1` (stereo not drawn) [Example A47-P4, 1,3-dimethyl-4-(1-methylcyclopropyl)-6-(1-oxo-3-(pyridin-3-yl)isoindolin-2-yl)-3,4-dihydropyrido [2,3-b]pyrazin-2(1H)-one] reads ≤ 10 nM; that for `C[C@H]1Oc2nc(N3C(=O)c4ccccc4C3c3ccc(F)nc3)ccc2N(C)C1=O` (single isomer, unassigned) [Example A111-P1], ≤ 10 nM. Then `CC1C(=O)N(C)c2ccc(N3C(=O)c4ccccc4C3c3ccncc3)nc2N1C1CC1` (stereo not drawn) [Example A58-P1, 4-cyclopropyl-1,3-dimethyl-6-(1-oxo-3-(pyridin-4-yl)isoindolin-2-yl)-3,4-dihydropyrido[2,3-b]pyrazin-2(1H)-one], with ≤ 10 nM; and `CCN1c2nc(N3C(=O)CCC3c3ccc(F)cc3)ccc2N(C)C(=O)[C@H]1C` (single isomer, unassigned) [Example A16-P1], with ≤ 10 nM; and `CC1C(=O)N(C)c2ccc(N3C(=O)CCC3c3ccc(Cl)cc3)nc2N1C1CC1` (stereo not drawn) [Example A3-P3, 4-cyclopropyl-6-(2-(4-chlorophenyl)-5-oxopyrrolidin-1-yl)-1,3-dimethyl-3,4-dihydropyrido[2,3-b]pyrazin-2(1H)-one], with ≤ 10 nM. For the compound `C[C@@H]1C(=O)N(C)c2cnc(N3C(=O)c4c(cccc4C(C)(C)O)C3c3ccc(F)cc3)nc2N1C1CC1` (stereo partly drawn) [Example A94-P4, (7R)-8-cyclopropyl-2-(3-oxo-1-(4-fluorophenyl)-4-(2-hydroxyprop-2-yl)isoindolin-2-yl)-5,7-dimethyl-7,8-dihydropteridin-6(5H)-one], the IC50 is ≤ 10 nM.

As for `CC1C(=O)N(C)c2ccc(N3C(=O)c4ccccc4C3c3ccc(F)cc3)nc2N1C1CCCC1` (racemic) [Example A38-P2, 4-cyclopentyl-6-(1-(4-fluorophenyl)-3-oxoisoindolin-2-yl)-1,3-dimethyl-3,4-dihydropyrido [2,3-b]pyrazin-2(1H)-one], the IC50 was ≤ 10 nM. Consider `CC1C(=O)N(C)c2ccc(N3C(=O)c4ccccc4C3c3ccc(F)cc3)nc2N1C1CC1` (single isomer, unassigned) [Example A23P4, 4-cyclopropyl-6-(1-(4-fluorophenyl)-3-oxoisoindolin-2-yl)-1,3-dimethyl-3,4-dihydropyrido[2,3-b]pyrazin-2(1H)-one], for which the IC50 was ≤ 10 nM.

Take `CC1C(=O)N(C)c2ccc(N3C(=O)c4cc(F)ccc4C3c3cccnc3)nc2N1C1CC1` (single isomer, unassigned) [Example A74-P4, 4-cyclopropyl-6-(5-fluoro-3-oxo-1-(pyridin-3-yl)isoindolin-2-yl)-1,3-dimethyl-3,4-dihydropyrido[2,3-b]pyrazin-2(1H)-one]: the IC50 was ≤ 10 nM. Then `C[C@@H]1C(=O)N(C)c2ccc(N3C(=O)c4c(cccc4[S+](C)[O-])C3c3cccnc3)nc2N1C` (single isomer, unassigned) [Example A63-P4], with ≤ 10 nM; and `CC1C(=O)N(C)c2ccc(N3C(=O)c4ccccc4C3c3ccc(F)cc3)nc2N1C1CCCC1` (racemic) [Example A38, 4-cyclopentyl-6-(1-(4-fluorophenyl)-3-oxoisoindolin-2-yl)-1,3-dimethyl-3,4-dihydropyrido [2,3-b]pyrazin-2(1H)-one], with 10 to 100 nM; and `C[C@@H]1C(=O)N(C)c2ccc(N3C(=O)c4c(cccc4[S+](C)[O-])C3c3cccnc3)nc2N1C` (single isomer, unassigned) [Example A63-P3], with ≤ 10 nM.

For `CC1C(=O)N(C)c2ccc(N3C(=O)c4ccccc4C3c3ccc(F)nc3)nc2N1C1CC1` (single isomer, unassigned) [Example A67-P3, 4-cyclopropyl-1,3-dimethyl-6-(1-oxo-3-(6-fluoropyridin-3-yl)isoindolin-2-yl)-3,4-dihydropyrido[3,2-b]pyrazin-2-(1H)-one], the IC50 is ≤ 10 nM. Consider `CC1C(=O)N(C)c2ccc(-n3c(=O)c4ccccc4n3-c3ccc(Cl)cc3)nc2N1C1COC1` (stereo not drawn) [Example A26-P2, 6-(1-(4-chlorophenyl)-3-oxo-1,3-dihydro-2H-indazol-2-yl)-1,3-dimethyl-4-(oxetan-3-yl)-3,4-dihydropyrido [2,3-b]pyrazin-2(1H)-one], for which the IC50 was ≤ 10 nM. With `CC1C(=O)N(CC(F)F)c2ccc(N3C(=O)c4ccccc4C3c3cccnc3)nc2N1C1CC1` (stereo not drawn) [Example A53-P4, 4-cyclopropyl-1-(2,2-difluoroethyl)-3-methyl-6-(1-oxo-3-(pyridin-3-yl)isoindolin-2-yl)-3,4-dihydropyrido [2,3-b]pyrazin-2(1H)-one], the IC50 was ≤ 10 nM. Then `CNC(=O)c1cccc2c1C(=O)N(c1ccc3c(n1)N(C)C(C)C(=O)N3C)C2c1ccccc1` (single isomer, unassigned) [Example A88-P4, N-methyl-3-oxo-1-phenyl-2-(1,3,4-trimethyl-2-oxo-1,2,3,4-tetrahydropyrido[2,3-b]pyrazin-6-yl)isoindoline-4-carboxamide], with ≤ 10 nM; and `C[C@H]1Oc2nc(N3C(=O)c4ccccc4C3c3ccc(Cl)nc3)ccc2N(C)C1=O` (single isomer, unassigned) [Example A122-P1], with 10 to 100 nM; and `CC1C(=O)N(C)c2cnc(-n3c(=O)c4ccccc4n3-c3ccc(Cl)cc3)nc2N1C1CC1` (single isomer, unassigned) [Compound A89-P3], with ≤ 10 nM. The result for `C[C@H]1Oc2nc(N3C(=O)c4ccccc4C3c3ccc(F)nc3)ncc2N(C)C1=O` (single isomer, unassigned) [Example A105-P1] reads 10 to 100 nM; that for `CC(=O)N1c2nc(N3C(=O)CCC3c3ccc(F)cc3)ccc2N(C)C(=O)[C@H]1C` (single isomer, unassigned) [Example A17-P1], 100 to 1000 nM; that for `CCN1C(=O)C(C)N(C2CC2)c2nc(N3C(=O)c4ccccc4C3c3cccnc3)ccc21` (stereo not drawn) [Example A49-P4, 4-cyclopropyl-1-ethyl-3-methyl-6-(1-oxo-3-(pyridin-3-yl)isoindolin-2-yl)-3,4-dihydropyrido [2,3-b]pyrazin-2-(1H)-one], ≤ 10 nM.

With `CC1C(=O)N(C)c2c(F)cc(N3C(=O)CCC3c3ccc(Cl)cc3)cc2N1C1CC1` (single isomer, unassigned) [Example A15-P1-1, 6-(2-(4-chlorophenyl)-5-oxopyrrolidin-1-yl)-4-cyclopropyl-8-fluoro-1,3-dimethyl-3,4-dihydroquinoxalin-2(1H)-one], the IC50 is ≤ 10 nM. Then `CC1C(=O)N(C)c2ccc(N3C(=O)CCC3c3cccnc3)nc2N1C1CC1` (single isomer, unassigned) [Example A14-P1, 4-cyclopropyl-1,3-dimethyl-6-(2-oxo-5-(pyridin-3-yl)pyrrolidin-1-yl)-3,4-dihydropyrido[2,3-b]pyrazin-2(1H)-one], with ≤ 10 nM; and `CC1Oc2nc(N3C(=O)c4ccccc4C3c3ccc(F)cc3)ccc2N(CC(F)(F)F)C1=O` (single isomer, unassigned) [Example A120-P1, 6-(1-(4-fluorophenyl)-3-oxoisoindol-2-yl)-3-methyl-1-(2,2,2-trifluoroethyl)-1H-pyrido[2,3-B][1,4]oxazin-2(3H)-one], with 100 to 1000 nM.

As for `CC1C(=O)N(C)c2ccc(N3C(=O)c4c(cccc4S(C)(=O)=O)C3c3cccnc3)nc2N1C1CC1` (single isomer, unassigned) [Example A64-P3, 4-cyclopropyl-1,3-dimethyl-6-(4-(methanesulfonyl)-3-oxo-1-(pyridin-3-yl)isoindolin-2-yl)-3,4-dihydropyrido[2,3-b]pyrazin-2(1H)-one], the IC50 was ≤ 10 nM. As to `C[C@H]1Oc2nc(N3C(=O)c4c(cccc4C(C)(C)O)C3c3ccc(F)cc3)ccc2N(C)C1=O` (single isomer, unassigned) [Example A119-P1], the IC50 was ≤ 10 nM. Then `CC1Oc2nc(N3C(=O)c4ccccc4C3c3ccc(F)cc3)ccc2N(C)C1=O` (stereo not drawn) [Example A39-P1, 6-(1-(4-fluorophenyl)-3-oxoisoindolin-2-yl)-1,3-dimethyl-1H-pyrido[2,3-b][1,4]oxazin-2(3H)-one], with ≤ 10 nM. Consider `C[C@H]1Oc2nc(N3C(=O)c4ccccc4C3c3cccnc3)ccc2N(C)C1=O` (stereo partly drawn) [Example A33-P1, (R)-1,3-dimethyl-6-(1-oxo-3-(pyridin-3-yl)isoindolin-2-yl)-1H-pyrido[2,3-B][1,3]oxazin-2(3H)-one], for which the IC50 is ≤ 10 nM. As for `CC1C(=O)N(C)c2ccc(N3C(=O)c4ccccc4C3c3ccccc3)nc2N1CC(F)(F)F` (stereo not drawn) [Example A56-P1, 1,3-dimethyl-6-(1-oxo-3-phenylisoindolin-2-yl)-4-(2,2,2-trifluoroethyl)-3,4-dihydropyrido [2,3-b]pyrazin-2(1H)-one], the IC50 was ≤ 10 nM. Turning to `C[C@H]1Oc2nc(N3C(=O)c4ccccc4C3c3cccnc3)c(F)cc2N(C)C1=O` (single isomer, unassigned) [Example A124-P1], the IC50 fell in the range of 10 to 100 nM. The result for `C[C@@H]1C(=O)N(C)c2ccc(N3C(=O)c4cccnc4C3(O)c3ccccc3)nc2N1C` (single isomer, unassigned) [Example A76-P1] reads ≤ 10 nM; that for `CC1Oc2nc(N3C(=O)CCC3c3ccc(F)cc3)ccc2N(C)C1=O` (single isomer, unassigned) [Example A21-P1, 6-(2-(4-fluorophenyl)-5-oxopyrrolidin-1-yl)-1,3-dimethyl-1H-pyrido[2,3-B][1,4]oxazin-2(3H)-one], ≤ 10 nM.

The values above are taken from patent US20210261539A1, “COMPOUND HAVING BET INHIBITORY ACTIVITY AND PREPARATION METHOD AND USE THEREFOR” (Shanghai Haihe Pharmaceutical Co., Ltd., priority 2018, published 2021).
